Earlier results on three molecules are cited in patent US11682473B2, “Skin permeability prediction” (priority 2016, dated 2023).

Each structure is given as a SMILES string. Like-named read-outs stand apart in the source and are kept apart here.

The conditions of this data set: for log KPexp: uncorrected literature value (permeabilities in cm/h); for log Kp303K: experimental literature values (in vitro diffusion cells), averaged over sources, temperature-corrected to 303 K; for log KP, Experimental: Experimental row of Table 16 (in vitro diffusion cells).

`c1ccccc1` [Benzene, benzene]: the “log Kp303K” value is given as −0.8 cm/h. The “log KPexp” value (Texp 25 °C) is reported as −0.80. The “log KPexp” value (Texp 31 °C) is listed as −0.95.
As for `CN1CCCC1c1cccnc1` (stereo not shown) [Nicotine, nicotine], the “log KP, Experimental” value was −1.8 cm/h and the “log Kp303K” value is reported as −1.8 cm/h. In addition, the “log KPexp” value (Texp 25 °C) was −1.71. The “log KPexp” value (Texp 37 °C) was −2.48.
Consider `COc1ccc2c3c1O[C@H]1[C@@H](O)C=C[C@H]4[C@@H](C2)N(C)CC[C@@]341` [Codeine, codeine], for which the “log KP, Experimental” value was −4.6 cm/h and the “log Kp303K” value is −4.6 cm/h. For the setting “Texp 37 °C”, the “log KPexp” value was −4.6.
